Values quoted from earlier work as cited in Sander's compilation of Henry's law constants (doi:10.1002/cite.330370802).

assay: Henry solubility constant Hcp at 303 K (mol/(m3 Pa)); settings: reference: Irmann (1965); cited value

For `FC(F)=C(F)F` [tetrafluoroethene], the “Henry solubility constant Hcp at 303 K” value is given as 9.8e-06.

assay: Henry solubility constant Hcp at 293 K (mol/(m3 Pa)); settings: reference: Irmann (1965); cited value

For `FC(F)(Cl)C(F)(F)Cl` [1,2-dichlorotetrafluoroethane], the “Henry solubility constant Hcp at 293 K” value is listed as 8.1e-06.

assay: Henry solubility constant Hcp at 294 K (mol/(m3 Pa)); settings: reference: Irmann (1965); cited value

First: CC(F)(F)Cl [1-chloro-1,1-difluoroethane]
Second: FC(F)(F)C(F)(Cl)Cl [1,1-dichlorotetrafluoroethane]
The “Henry solubility constant Hcp at 294 K” value of the first is higher: 0.00019 for the first, 5.8e-06 for the second.

For `CC(F)F` [1,1-difluoroethane], the “Henry solubility constant Hcp at 294 K” value is listed as 0.00048.

assay: Henry solubility constant Hcp at 298.15 K (mol/(m3 Pa)); settings: reference: Irmann (1965); cited value

Going from `C=CC=C` [1,3-butadiene] to `FC(F)(F)C(F)(F)Cl` [chloropentafluoroethane], the “Henry solubility constant Hcp” value falls from 0.00015 to 3.2e-06.

Compared with `FC(F)(F)Br` [bromotrifluoromethane], `FC(F)(F)F` [tetrafluoromethane] is lower in “Henry solubility constant Hcp” value: 2e-05 for the first, 1.9e-06 for the second.

First: FC(F)(F)Cl [chlorotrifluoromethane]
Second: FC(F)(Cl)Cl [dichlorodifluoromethane]
The “Henry solubility constant Hcp” value of the first is lower: 5.7e-06 for the first, 2.3e-05 for the second.

Going from `FC(F)F` [trifluoromethane] to `FC(F)(F)CCl` [2-chloro-1,1,1-trifluoroethane], the “Henry solubility constant Hcp” value rises from 0.0001 to 0.00037.

In the case of `CCCl` [chloroethane], the “Henry solubility constant Hcp” value is given as 0.00063.
